Experimental data from patent publication US11384385B2, “Method for predicting therapeutic effects of irinotecan, and kit for same” (Yamaguchi University, priority 2017, dated 2022).
Where two headings read alike, the source gives them in different places.

Legend:
[1] = FIG. 5, Table 2 of WO2016/132736, cited from earlier work
[2] = system: colorectal cancer (stage IV); experiment: Therapeutic effect of irinotecan on cancer evaluated by RECIST (CR and PR = therapeutic effect), by rs1980576 genotype; type: in vivo, human; conditions: for therapeutic effect observed (CR+PR): rs1980576 wild-type homozygote (A/A)
Procedure: Analysis objects were 140 cases among 155 Japanese colorectal cancer (stage IV) cases who were administered with irinotecan excluding cases who were administered with a reduced amount of irinotecan, UGT1A1*6 (homo), UGT1A1*28 (homo), and their compound heterogeneous cases and determined for the therapeutic effect and 66 subpopulation cases (FOLFIRI cases with a unified regimen) among the 140 cases. FOLFIRI is one of standard treatments for colorectal cancer and using irinotecan simultaneous with treatment with a combination of fluorouracil and 1-leucovorin. The 140 cases were Japanese colorectal cancer patients treated with a regimen including irinotecan. The regimen in this Example includes combination therapy, in addition to irinotecan, with FOLFIRI using fluorouracil and 1-leucovorin, […] using capecitabine, IRIS using S-1, or an anti-EGFR antibody agent ([…], Cetuximab, or Panitumumab). Comprehensive analysis (WES analysis) of the prepared genome DNA was performed by the same method as described in WO2016/132736 (PCT/JP2016/000793). That is, three types of cases: cases (n=5) as a control group in which UGT1A genetic polymorphisms (seven positions of UGT1A1*6, *27, and *28, UGT1A7 (387T>G and 622T>C), UGT1A9*1b, and UGT1A1*60) were all homozygotes being low in side effect risk and no side effect from irinotecan were observed; cases (n=5) as a case group in which although the UGT1A genetic polymorphisms were the same as those in the control group, side effects (Grade 3, entire course) were observed; and cases (n=5) in which any of the UGT1A genetic polymorphisms was a heterozygote and a side effect was observed from the first administration of irinotecan (Grade 4), were established, and the case and control groups were analyzed. […] The genetic polymorphisms and the side effect frequency and the response rates were statistically analyzed using a Cochran-Armitage trend test. […] Accordingly, 11 single nucleotide polymorphisms in total: the above-mentioned single nucleotide polymorphisms a) to f) and single nucleotide polymorphisms g) UGT1A1*6, h) UGT1A1*60, i) UGT1A7 (387T>G), j) UGT1A7 (622T>C), and k) UGT1A9*1b known to be involved in side effects from irinotecan, were analyzed for a relationship with the therapeutic effects of irinotecan on cancer. […] CR and PR were determined to have a therapeutic effect; and SD and PD were determined to have no therapeutic effect. […] FIGS. 1 and 2 show the analysis results of 140 cases determined for therapeutic effects, and FIGS. 3 and 4 show the analysis results of 66 subpopulation cases among the 140 cases. […] In addition, in FIGS. 1 to 4, “Odds ratio” is calculated as an odds ratio of the therapeutic effects (efficacy) of irinotecan on cancer in a wild-type homozygote or a mutant-type homozygote by Fisher's exact test.

cancer = conditions: general response rate; cited from earlier work
[3] = rs1980576 mutant-type homozygote (G/G)

## CCc1c2c(nc3ccc(OC(=O)N4CCC(N5CCCCC5)CC4)cc13)-c1cc3c(c(=O)n1C2)COC(=O)[C@]3(O)CC [irinotecan, (S)-4,11-diethyl-3,4,12,14-tetrahydro-4-hydroxy-3,14-dioxo-1H-pyrano[3′,4′:6,7]indolizino[1,2-b]quinolin-9-yl ester, CPT-11,1,4′-bipiperidine-1′-carboxylic acid]
[1]; rs1980576 heterozygote (A/G)
  risk of side effects: low
[1]; [3]
  risk of side effects: high
[1]; rs1980576 wild-type homozygote (A/A)
  risk of side effects: low
[2]; rs1980576 heterozygote (A/G)
  possibility of a therapeutic effect of irinotecan on cancer: high
[2]; [3]
  therapeutic effect: low
[2]; 66 FOLFIRI cases only (FIG. 3)
  therapeutic effect observed (CR+PR): 43%
[2]; 140 Japanese colorectal cancer cases, regimen including irinotecan (FIG. 1)
  therapeutic effect observed (CR+PR): 38%
cancer
  response rate of irinotecan generally: about 32%
